Results from ChEMBL document CHEMBL3885881, “DrugMatrix”.

Species on record: Rattus norvegicus
Experiment: DrugMatrix - Regimen: Daily Repeat
Assay type: toxicity, organism-based, Sprague-Dawley
Design: regimen Daily Repeat, gender Male, age 6-8 weeks
Conditions: in vivo, po, route oral GAVAGE, vehicle 100 % WATER; for ABSOLUTE BASOPHIL / ABSOLUTE EOSINOPHIL / ABSOLUTE LYMPHOCYTE / ABSOLUTE MONOCYTE / ABSOLUTE SEGMENTED NEUTROPHIL / BASOPHIL / EOSINOPHIL / ERYTHROCYTE COUNT / HEMATOCRIT / HEMOGLOBIN / LEUKOCYTE COUNT / LYMPHOCYTE / MEAN CORPUSCULAR HEMOGLOBIN / MEAN CORPUSCULAR HEMOGLOBIN CONCENTRATION / MEAN CORPUSCULAR VOLUME / MONOCYTE / NEUTROPHIL / NUCLEATED RED BLOOD CELLS / PLATELET COUNT: tissue Blood; for ALANINE AMINOTRANSFERASE / ALBUMIN / ALKALINE PHOSPHATASE / ASPARTATE AMINOTRANSFERASE / BLOOD UREA NITROGEN / CARBON DIOXIDE / CHLORIDE / CHOLESTEROL / CREATINE PHOSPHOKINASE / CREATININE / GLUCOSE / LACTATE DEHYDROGENASE / LIPASE / PHOSPHORUS / POTASSIUM / SODIUM / TOTAL BILIRUBIN / TOTAL PROTEIN / URIC ACID: tissue Plasma
[1] = 175 mg/kg, 120 h, dose level High, time 5 day
[2] = […], 72 h, dose 5.8 mg/Kg, dose level Low, time 3 day
[3] = […], 120 h, dose 5.8 mg/Kg, dose level Low, time 5 day

SMILES: O=c1[nH]c(=O)n(C2CCCO2)cc1F (centres undefined) [TEGAFUR]
- ABSOLUTE BASOPHIL [1]: 0 CELLS/uL
- ABSOLUTE EOSINOPHIL [1]: 47 CELLS/uL
- ABSOLUTE LYMPHOCYTE [1]: 11945 CELLS/uL
- ABSOLUTE MONOCYTE [1]: 125.33 CELLS/uL
- ABSOLUTE SEGMENTED NEUTROPHIL [1]: 416 CELLS/uL
- BASOPHIL [1]: 0%
- EOSINOPHIL [1]: 0.33%
- ERYTHROCYTE COUNT [1]: 6.13 x10E6/uL
- HEMATOCRIT [1]: 37.33%
- HEMOGLOBIN [1]: 14.9 G/DL
- LEUKOCYTE COUNT [1]: 12.53 x10E3/uL
- LYMPHOCYTE [1]: 95.33%
- MEAN CORPUSCULAR HEMOGLOBIN [1]: 24.33 pg
- MEAN CORPUSCULAR HEMOGLOBIN CONCENTRATION [1]: 39.9 G/DL
- MEAN CORPUSCULAR VOLUME [1]: 60.9 fL
- MONOCYTE [1]: 1%
- NEUTROPHIL [1]: 3.33%
- NUCLEATED RED BLOOD CELLS [1]: 0 /100WBC
- PLATELET COUNT [1]: 1252.33 x10E3/uL
- ALANINE AMINOTRANSFERASE [1]: 40 u/L
- ALBUMIN [1]: 4.43 G/DL
- ALKALINE PHOSPHATASE [1]: 333 u/L
- ASPARTATE AMINOTRANSFERASE [1]: 113 u/L
- BLOOD UREA NITROGEN [1]: 19.67 mg/dL
- CARBON DIOXIDE [1]: 26 mmol/L
- CHLORIDE [1]: 106 MEQ/L
- CHOLESTEROL [1]: 80.67 mg/dL
- CREATINE PHOSPHOKINASE [1]: 419.33 u/L
- CREATININE [1]: 0.24 mg/dL
- GLUCOSE [1]: 146.33 mg/dL
- LACTATE DEHYDROGENASE [1]: 797.67 u/L
- LIPASE [1]: 9.33 u/L
- PHOSPHORUS [1]: 10.2 mg/dL
- POTASSIUM [1]: 5.48 MEQ/L
- SODIUM [1]: 149.83 MEQ/L
- TOTAL BILIRUBIN [1]: 0.17 mg/dL
- TOTAL PROTEIN [1]: 6.13 G/DL
- URIC ACID [1]: 1.43 mg/dL
- ABSOLUTE BASOPHIL [2]: 0 CELLS/uL
- ABSOLUTE EOSINOPHIL [2]: 50 CELLS/uL
- ABSOLUTE LYMPHOCYTE [2]: 13948.67 CELLS/uL
- ABSOLUTE MONOCYTE [2]: 166.67 CELLS/uL
- ABSOLUTE SEGMENTED NEUTROPHIL [2]: 1434.67 CELLS/uL
- BASOPHIL [2]: 0%
- EOSINOPHIL [2]: 0.33%
- ERYTHROCYTE COUNT [2]: 5.51 x10E6/uL
- HEMATOCRIT [2]: 34.4%
- HEMOGLOBIN [2]: 13.43 G/DL
- LEUKOCYTE COUNT [2]: 15.6 x10E3/uL
- LYMPHOCYTE [2]: 89.67%
- MEAN CORPUSCULAR HEMOGLOBIN [2]: 24.37 pg
- MEAN CORPUSCULAR HEMOGLOBIN CONCENTRATION [2]: 39.03 G/DL
- MEAN CORPUSCULAR VOLUME [2]: 62.43 fL
- MONOCYTE [2]: 1%
- NEUTROPHIL [2]: 9%
- NUCLEATED RED BLOOD CELLS [2]: 0 /100WBC
- PLATELET COUNT [2]: 1387 x10E3/uL
- ALANINE AMINOTRANSFERASE [2]: 47.33 u/L
- ALBUMIN [2]: 4.23 G/DL
- ALKALINE PHOSPHATASE [2]: 325.33 u/L
- ASPARTATE AMINOTRANSFERASE [2]: 100.33 u/L
- BLOOD UREA NITROGEN [2]: 15.33 mg/dL
- CARBON DIOXIDE [2]: 28.33 mmol/L
- CHLORIDE [2]: 100.33 MEQ/L
- CHOLESTEROL [2]: 86 mg/dL
- CREATINE PHOSPHOKINASE [2]: 626 u/L
- CREATININE [2]: 0.22 mg/dL
- GLUCOSE [2]: 138.67 mg/dL
- LACTATE DEHYDROGENASE [2]: 764.67 u/L
- LIPASE [2]: 9.67 u/L
- PHOSPHORUS [2]: 12.43 mg/dL
- POTASSIUM [2]: 6.48 MEQ/L
- SODIUM [2]: 143.37 MEQ/L
- TOTAL BILIRUBIN [2]: 0.17 mg/dL
- TOTAL PROTEIN [2]: 5.97 G/DL
- URIC ACID [2]: 1.57 mg/dL
- ABSOLUTE BASOPHIL [3]: 0 CELLS/uL
- ABSOLUTE EOSINOPHIL [3]: 53.67 CELLS/uL
- ABSOLUTE LYMPHOCYTE [3]: 12194.67 CELLS/uL
- ABSOLUTE MONOCYTE [3]: 43 CELLS/uL
- ABSOLUTE SEGMENTED NEUTROPHIL [3]: 1808.67 CELLS/uL
- BASOPHIL [3]: 0%
- EOSINOPHIL [3]: 0.33%
- ERYTHROCYTE COUNT [3]: 5.38 x10E6/uL
- HEMATOCRIT [3]: 32.9%
- HEMOGLOBIN [3]: 13.1 G/DL
- LEUKOCYTE COUNT [3]: 14.1 x10E3/uL
- LYMPHOCYTE [3]: 86.67%
- MEAN CORPUSCULAR HEMOGLOBIN [3]: 24.33 pg
- MEAN CORPUSCULAR HEMOGLOBIN CONCENTRATION [3]: 39.83 G/DL
- MEAN CORPUSCULAR VOLUME [3]: 61.1 fL
- MONOCYTE [3]: 0.33%
- NEUTROPHIL [3]: 12.67%
- NUCLEATED RED BLOOD CELLS [3]: 0.33 /100WBC
- PLATELET COUNT [3]: 1303.67 x10E3/uL
- ALANINE AMINOTRANSFERASE [3]: 51 u/L
- ALBUMIN [3]: 4.13 G/DL
- ALKALINE PHOSPHATASE [3]: 305.67 u/L
- ASPARTATE AMINOTRANSFERASE [3]: 93.67 u/L
- BLOOD UREA NITROGEN [3]: 16 mg/dL
- CARBON DIOXIDE [3]: 24.33 mmol/L
- CHLORIDE [3]: 102.67 MEQ/L
- CHOLESTEROL [3]: 77.33 mg/dL
- CREATINE PHOSPHOKINASE [3]: 365 u/L
- CREATININE [3]: 0.22 mg/dL
- GLUCOSE [3]: 140 mg/dL
- LACTATE DEHYDROGENASE [3]: 424.33 u/L
- LIPASE [3]: 9.33 u/L
- PHOSPHORUS [3]: 11.73 mg/dL
- POTASSIUM [3]: 6.27 MEQ/L
- SODIUM [3]: 142.73 MEQ/L
- TOTAL BILIRUBIN [3]: 0.27 mg/dL
- TOTAL PROTEIN [3]: 5.97 G/DL
- URIC ACID [3]: 1.6 mg/dL
